Test results: patent US12162855B2, “Tetrahydroquinolino derivatives for the treatment of metastatic and chemoresistant cancers” (THE TRUSTEES OF PRINCETON UNIVERSITY, priority 2018, dated 2024)
Values joined by “and” are separate entries in the source; they are usually repeats but may differ in a detail not shown here. Equal entries are not always repeated. Marks after values point to notes of the source that are not given here.

How the values were obtained:
[1] = system: Sum-159-M1a-Aldh1a3 cells; test: Lung metastasis xenograft, Sum-159-M1a-Aldh1a3 cells by tail-vein injection; type: in vivo, mouse; details: 25 mg/kg daily with paclitaxel 12.5 mg/kg every other day, 12 days
Procedure: In another xenograft experiment, mice were injected with Sum-159-M1a-Aldh1a3 cells via tail-vein injection, and were randomized following injection. Mice were treated with MBE1.5 (25 mg/kg daily) or vehicle, and paclitaxel (12.5 mg/kg every other day) for twelve days. Lung metastasis progression was tracked by intravital bioluminescence.

[2] = Plasma pharmacokinetics in mice by LC/MS/MS; type: in vivo, mouse; details: for half-life / AUC(0-inf) / Clearance: mice, dose 25 mg/kg; for AUC(0-inf): noncompartment model
Procedure: Pharmacokinetic experiments were performed on 16-week old C57BL6 male mice. Mice were administered MBE1.5 (15% DMSO, 5% Kolliphor EL, 80% PBS) via IP injection. Blood was collected by terminal cardiac puncture at 15 minutes, 30 minutes, 1 hour, 3 hours, and 24 hours post-injection. Serum was obtained by blood separation via centrifugation at 16200 RCF for 1 min. Tissues were then collected following exsanguination. Serum and tissues were rapidly frozen in liquid nitrogen and submitted for pharmacokinetic evaluation.
Plasma MBE1.5 concentration was measured with LC/MS/MS assay in mice PK studies.
Chemicals: MBE1.5 and MBE2.0 were supplied as stocks (1 mg/mL) in MeOH with 1% DMSO. MBE2.0 was used as internal standard. HPLC grade acetonitrile and water were purchased from J.T. Baker (Center Valley, PA). The mouse plasma was purchased from Innovative Research (Novi, MI) for the preparation of plasma calibration standards.
Preparation of standard solution: MBE1.5 stock was diluted in control mice plasma to obtain calibration range from 8.2 ng/mL to 18 μg/mL. 1 μg/mL MBE2.0 in methanol was used as a working internal standard (IS).
Sample preparation: The plasma standard and mouse plasma samples (204) were spiked with 54 μL IS and deproteinized with 1204 acetonitrile and methanol (v/v 5:1). After centrifugation at 13000 rpm for 15 minutes, 254 of the supernatant was analyzed by LC-MS.
Liquid Chromatographic/Mass spectrometry: Quantitation of MBE1.5 was performed using TSQ Quantum triple quadruple mass spectrometer equipped with an API electrospray ionization (ESI) source, a Surveyor MS pump, a Surveyor Autosampler, with Xcalibur data acquisition software (ThermoElectron, San Jose, CA, USA).
LC conditions were as follows: mobile phase A: aqueous solution (0.1% formic acid); mobile phase B: acetonitrile (0.1% formic acid); flow rate 500 μL/min; gradient elution, 0 to 1 minute, 60% A; 1 to 2.5 minutes, 60% to 20% A; 2.5 to 7.0 minutes, 0% A, 7.0 to 9.0 minutes 0% A, 9.0 to 11.0 minutes, 0% to 60% A; and column: Luna® C18, 150×4.6 mm, 5 μm (Phenomenex, Torrance, CA). The retention times for MBE1.5 and IS were 6.3 minutes and 6.6 minutes, respectively.
MS/MS conditions were as follows: in single reaction monitoring mode, m/z 313.2/178.2 (MBE1.5), m/z 281.2/119.1 (MBE2.0, IS); ion spray voltage, 4500 v; capillary temperature 350° C.; sheath gas pressure 20 arbitrary units; Aux gas pressure 50 arbitrary units; collision pressure 1.5 arbitrary units. The collision energy and tube lens were optimized for each compound.
Calculation: Plasma calibration standards were used for the quantitation of MBE in plasma samples. The log linear regression was used for calibration curve to determine the concentration in plasma samples.
Preliminary PK data was analyzed using noncompartment model by Winnolin 2.0.

Aldh3a1 = target: T1, Aldh3a1 (Homo sapiens, UniProt P30838); test: ALDEFLUOR assay in MCF7 cells transduced with human Aldh3a1; type: cell-based; details: concentrations below 10 μM
T1 construct: expressed in transfected cells; host or cells: MCF7, lentiviral pLex vector
T1 sequence (P30838 1-453): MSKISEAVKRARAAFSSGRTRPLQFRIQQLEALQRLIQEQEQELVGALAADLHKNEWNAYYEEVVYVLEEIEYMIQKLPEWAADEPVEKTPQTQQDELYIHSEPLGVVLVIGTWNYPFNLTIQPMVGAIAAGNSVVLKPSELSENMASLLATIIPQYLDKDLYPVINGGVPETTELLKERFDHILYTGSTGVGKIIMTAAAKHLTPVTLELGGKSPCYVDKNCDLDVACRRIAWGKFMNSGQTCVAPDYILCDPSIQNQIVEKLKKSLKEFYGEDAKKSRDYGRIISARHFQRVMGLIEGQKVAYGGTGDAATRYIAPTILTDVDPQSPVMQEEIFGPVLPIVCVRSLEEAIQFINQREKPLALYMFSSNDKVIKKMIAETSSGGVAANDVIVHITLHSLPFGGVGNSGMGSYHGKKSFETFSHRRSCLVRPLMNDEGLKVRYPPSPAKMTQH
Procedure: The coding sequences of Aldh1a1, Aldh1a2, Aldh1a3 and Aldh3a1 were cloned from cDNA made from pooled human reference RNA samples. Cloned sequences flanked by Age1 and Xho1 restriction sites were inserted into the pLex lentiviral plasmid. Clones were sequenced and compared against NCBI expressed sequence tags (ESTs) for accuracy. […]. Viruses were collected and filtered at 0.45 μm, then cells were transduced using polybrene (8 μg/mL) for 12 hours, followed by culture with 1 μg/mL puromycin for the duration of experiments. All viral transduction and selection was performed on a cell population-wide basis.
Cells were counted, centrifuged and resuspended at 1,000,000 cells/mL in ALDEFLUOR™ buffer (Stemcell Technologies). ALDEFLUOR™ substrate (Stemcell Technologies, 1:200) and test compound or 1 mM DEAB were added to cell suspension and incubated at 37° C. for 45 minutes with vortexing every 15 minutes. Cells were centrifuged and resuspended in ALDEFLUOR™ buffer with DAPI at 5 μg/mL. Samples were analyzed with the BD LSR2 flow cytometry platform. Gating was performed using DEAB as a negative control.

[3] = male, C57BL6, mouse, plasma, ip, 25 mg/kg, i.p., calculation: time point to 3 hr
[4] = male, C57BL6, mouse, plasma, ip, 25 mg/kg, i.p., calculation: time point to 24 hr

| SMILES | mouse survival, Kaplan-Meier (FIG. 16B) [1] | Concentration in mouse plasma, individual mice ([2]; Time 0 hr, mice #1-#3, LOD 8.2 ng/mL) | Concentration in mouse plasma, individual mice ([2]; Time 0.5 hr, i.p., mice #1-#3) | Concentration in mouse plasma, individual mice ([2]; Time 1 hr, i.p., mice #1-#3) | Concentration in mouse plasma, individual mice ([2]; Time 3 hr, i.p., mice #1-#3) | Concentration in mouse plasma, individual mice ([2]; Time 24 hr, i.p., mice #1-#3, LOD 8.2 ng/mL) | Concentration in mouse plasma, individual mice, forced to calculate ([2]; Time 24 hr, i.p., mice #1-#3, integrated peak area less than LOD) | Concentration in mouse plasma, Mean ([2]; Time 24 hr, i.p., LOD 8.2 ng/mL) | concentration at 0.5 h ([2]; male, C57BL6, mouse, plasma, ip, 25 mg/kg, Time 0.5 hr) [ng/mL] | concentration at 1 h ([2]; male, C57BL6, mouse, plasma, ip, 25 mg/kg, Time 1 hr) [ng/mL] | concentration at 3 h ([2]; male, C57BL6, mouse, plasma, ip, 25 mg/kg, Time 3 hr) [ng/mL] | concentration at 24 h ([2]; male, C57BL6, mouse, plasma, ip, 25 mg/kg, Time 24 hr, i.p., integrated peak area less than LOD, read-out: Concentration in mouse plasma, Mean, forced to calculate) [ng/mL] | half-life [2, 3] [h] | AUC(0-inf) [2, 3] [ng·h/mL] | half-life [2, 4] [h] | AUC(0-inf) [2, 4] [ng·h/mL] | Clearance ([2]; i.p., calculation: time point to 3 hr) [mL/h] | Clearance ([2]; i.p., calculation: time point to 24 hr) [mL/h] | inhibition of Aldh3a1 activity (FIG. 2A) (Aldh3a1) |
| --- | --- | --- | --- | --- | --- | --- | --- | --- | --- | --- | --- | --- | --- | --- | --- | --- | --- | --- | --- |
| CCc1ccccc1C(=O)Nc1cc2c(cc1F)NC(=O)CC2 [MBE1.5, 2-ethyl-N-(7-fluoro-2-oxo-1,2,3,4-tetrahydroquinolin-6-yl)benzamide] | extended survival in mice with late-stage established breast cancer lung metastasis | <LOD | 6932 ng/mL and 3411 ng/mL and 4650 ng/mL | 2842 ng/mL and 6295 ng/mL and 2815 ng/mL | 1704 ng/mL and 3447 ng/mL and 849 ng/mL | <LOD | 0.002* μg/ml and 0.006* μg/ml and 0.005* μg/ml | <LOD | 5000 | 3980 | 2000 | 4 | 1.9 | 15700 | 2.32 | 16900 | 39.87 | 36.96 |  |
| CCc1cnccc1C(=O)Nc1cc2c(cc1F)NC(=O)CC2 [MBE1, 3-ethyl-N-(7-fluoro-2-oxo-1,2,3,4-tetrahydroquinolin-6-yl)isonicotinamide] |  |  |  |  |  |  |  |  |  |  |  |  |  |  |  |  |  |  | does not inhibit |
